According to patent US20240058456A1, “MOLECULES WITH SOLUBILITY TAG AND RELATED METHODS” (Merck Patent GmbH, priority 2020, published 2024):

Assay: Solubility and aggregation during conjugation
Format: physicochemical
Conditions: conjugation media
Method: To this end, 1 eq antibody in a buffer with 150 mM NaCl, 25 mM Tris (pH 8.0) was mixed with a solution of the respective payload (10× or 20× surplus to the concentration of the antibody, depending on the number of linkage sites) and 6 U/ml of transglutaminase. The mixture was incubated for 16 h in a thermomixer at 37° C. and 450 rpm.
For linkage by maleimide chemistry, a 5 mg/mL solution of the respective antibody component in PBS (pH 7.4) was prepared (˜33 μM antibody). The antibody was reduced with TCEP ((tris(2-carboxyethyl)phosphine); ratio of antibody component to TCEP 1:2 to 1:6, depending on the desired DAR; TCEP was used as 2 mM stock, pH 7.0) or in some cases with DTT (dithiothreitol; 20 mM). After incubation for 0.5-2 hours (depending on the number of cysteines to be activated) in a 37° C. water bath, the reaction was allowed to cool down to room temperature.
The solution was desalted to conjugation buffer (10 mM sodium phosphate, pH 6.0, 2 mM EDTA, N2 degassed) on a Sephadex G25 column and adjusted to an antibody concentration of 0.2 mg/mL in conjugation buffer.
Conjugation was initiated by adding the reduced antibody to a solution of the appropriate maleimide-activated linker-payload construct at a suitable ratio (e.g. 1:4 to 1:8 ratio antibody to linker-payload construct for DAR 4; e.g. 1:20 ratio antibody to linker-payload construct for DAR 8). […]

For `Cc1cccc2c(OC(=O)N(CCC(=O)NCCOS(=O)(=O)O)CCN(C)C(=O)OCc3ccc(NC(=O)[C@H](CCCNC(N)=O)NC(=O)[C@@H](NC(=O)CNC(=O)CNC(=O)CN)C(C)C)cc3)cc3c(c12)[C@H](CCl)CN3C(=O)c1cn2cc(NC(=O)c3cc4ccccc4o3)ccc2n1` [Compound 5], the “solubility of the linker-payload construct under coupling conditions” value was “insufficient”.
